We go through 13 molecules from the C3SDB collision cross section collection.

The conditions of data set [1]: instrument: TW, calibrated with polyalanine.
The conditions of data set [2]: instrument: DT, stepped-field.
For data set [3] the following is noted: instrument: DT, single field, calibrated with Agilent tune mix (Agilent).
For data set [4] the following is noted: instrument: DT, stepped-field. The source holds these as a separate data set.

In the case of `COc1cc2c(c3oc(=O)c4c(c13)CCOC4=O)[C@@H]1CCO[C@@H]1O2` [Aflatoxin G2], the “collision cross section (N2)” value in data set [1] ([M+H]+) is 166 Å²; in data set [1] ([M+K]+), 181 Å²; in data set [1] ([M+Na]+), 176.4 Å².

As for `CN1CC(=O)N=C1N` [Creatinine], the “collision cross section (N2)” value in data set [2] ([M+H]+) worked out at 123.93 Å²; in data set [2] ([M+Na]+) it was 133.41 Å²; in data set [3] ([M+H]+), 123.4 Å²; in data set [3] ([M-H]-), 116.68 Å²; in data set [4] ([M+H]+), 123.87 Å²; in data set [4] ([M+Na]+), 132.99 Å². Besides, the “collision cross section (N2)” value in data set [4] ([M-H]-) is 120.7 Å².

Turning to `CC(=O)OC[C@]12CCC(C)=C[C@H]1O[C@@H]1[C@H](O)[C@@H](OC(C)=O)[C@@]2(C)[C@@]12CO2` [Diacetoxyscirpenol], the “collision cross section (N2)” value in data set [1] ([M+NH4]+) is on record as 192 Å².

As for `CC[C@H](C)[C@H]1C(=O)O[C@H](C(C)C)C(=O)N(C)[C@@H](C(C)C)C(=O)O[C@H](C(C)C)C(=O)N(C)[C@@H](C(C)C)C(=O)O[C@H](C(C)C)C(=O)N1C` [Enniatin B1], the “collision cross section (N2)” value in data set [1] ([M+H]+) was 246.4 Å²; in data set [1] ([M+K]+), 254.7 Å²; in data set [1] ([M+NH4]+) it was 253 Å²; in data set [1] ([M+Na]+) it was 253.4 Å².

`CC(=O)O[C@@H]1[C@@H](O)[C@H]2O[C@@H]3C=C(C)C(=O)[C@@H](O)[C@]3(CO)[C@]1(C)[C@]21CO1` [Fusarenon X]: in data set [1] ([M+H3C2O2]-), the “collision cross section (N2)” value was 195 Å².

Consider `NCCCC[C@H](N)C(=O)O` [L-Lysine], for which the “collision cross section (N2)” value in data set [2] ([M+H]+) was 131.8 Å²; in data set [3] ([M+H]+) it was 130.7 Å²; in data set [4] ([M+H]+), 131.62 Å².

Regarding `CC(=O)OC[C@]12C[C@H](O)C(C)=C[C@H]1O[C@@H]1[C@H](O)[C@@H](OC(C)=O)[C@@]2(C)[C@]12CO2` [Neosolaniol], the “collision cross section (N2)” value in data set [1] ([M+NH4]+) is 198 Å².

Take `CCCCCCCCCCCCCCCC(=O)O` [Palmitic acid]: the “collision cross section (N2)” value was found to be 195 Å² in data set [3] ([M+Na]+), 167.52 Å² in data set [3] ([M-H]-) and 169.12 Å² in data set [4] ([M-H]-).

For `C=C(C)[C@H]1O[C@H]2CC[C@@]3(C)[C@@](O)(CC[C@H]4[C@@H]5OC(C)(C)[C@H]6C[C@@H]7C(=C)Cc8c(Cl)cc9[nH]c(c5c9c8[C@@]76O)[C@@]43C)[C@]23O[C@@H]3[C@H]1O` [Penitrem A], the “collision cross section (N2)” value in data set [1] ([M+H]+) was found to be 253 Å².

Consider `CC(=O)OC[C@]12C[C@H](OC(=O)CC(C)C)C(C)=C[C@H]1O[C@@H]1[C@H](O)[C@@H](OC(C)=O)[C@@]2(C)[C@]12CO2` [T-2 toxin], for which the “collision cross section (N2)” value in data set [1] ([M+NH4]+) was determined as 214 Å².

On to `CC(C)C[C@@H]1NC(=O)[C@H](C)N(C)C(=O)CNC(=O)/C(=C/c2ccccc2)N(C)C1=O` [Tentoxin], for which the “collision cross section (N2)” value in data set [1] ([M+H]+) is recorded as 202 Å².

Take `CC[C@H](C)[C@@H]1NC(=O)C(C(C)=O)=C1O` [Tenuazonic acid]: the “collision cross section (N2)” value in data set [1] ([M+H]+) is reported as 135 Å².

Turning to `C[C@H]1CCCC(=O)CCC/C=C/c2cc(O)cc(O)c2C(=O)O1` [Zearalenone], the “collision cross section (N2)” value in data set [1] ([M-H]-) came to 170 Å².
